# Patent US4942154A, “Steroidal glycolipids as host resistance stimulators against viral infection” (priority 1987, dated 1990)
# What was measured:
# [1] = test system: Mycobacterium aviumintracellulare; settings: AIDS patients; cited from earlier work
# [2] = test system: AIDS / AIDS-related complex (ARC); settings: human, in vivo; cited from earlier work
# [3] = cited from earlier work; for adverse effects, toxicity, tolerability: clinical
# HIV = settings: cited from earlier work
# [4] = test system: HIV reverse transcriptase; settings: cited from earlier work
# Staphylococcus aureus = assay: In vivo protection from Staphylococcus aureus infection in cyclophosphamide-treated mice; parameters: species or system CF1 female mice; settings: SA, CY +
# Experimental: (§1) Groups of 15-20 CF1 female mice (Charles River Breeding, Cambridge, Mass.) weighing 22-28 gm were injected intraperitoneally (i.p.) with cyclophosphamide (Cytoxan; CY) at 250 mg per kg body weight. One to two hours later they were typically injected again with the test material by the route specified. Four days later, the mice were divided into groups of five, each of which were injected i.p. with a different dilution of a suspension of Pseudomonas aeruginosa (Immunotype 1). The number of survivors was determined periodically and an estimate was made of the number of CFU of Pseudomonas organisms necessary to cause 50% lethality by the cumulative method of L. J. Reed and H. Muench (Am. J. Hygiene 27 (1938) 493-497). A protective index (P.I.) was defined as the LD50 for the mice receiving cyclophosphamide and the test compound divided by the LD50 for the mice receiving cyclophosphamide alone. All control mice were injected with aqueous vehicle in the same route and schedule as the test animals.
# (§2) MATERIALS. All compounds for dosing were suspended in a sterile medium referred to as "aqueous vehicle" which contains 0.9% sodium chloride, 0.5% carboxymethyl cellulose, 0.4% Tween 80, and 0.9% benzyl alcohol unless otherwise stated. Test materials were evaluated via subcutaneous (s.c.), i.p., intramuscular (i.m.), orally (p.o.). and intravenous (i.v.) routes of administration. The initial test dose was 40 mg per kg per mouse, with each active compound subsequently titrated below this level.
# (§3) INFECTION OF ANIMALS. All bacteria were inoculated i.p. to induce infection in the in vivo experiments. Candida albicans, however, was administrated i.v. Bacteria cultures were harvested in the log phase, washed with phosphate buffered saline (PBS, and resuspended in PBS containing 10% glycerol for freezing at -70° C. in 1 ml aliquots. The number of […] (cfu's) was determined before and after freezing. Frozen cultures were routinely thawed and diluted in sterile PBS just prior to inoculation. Viable cell counts were routinely done on thawed cultures the day of challenge to determine the number of cfu's. Candida albicans was stored in distilled water at room temperature. Viable cell counts were determined the day of testing.
# (§4) The testing and results of 6-(5-cholesten-3β-yloxy)hexyl-1-thio-β-D-mannopyranoside (Example 2) against various organisms is shown in Table 2.
# Candida albicans = assay: In vivo protection from Candida albicans infection in cyclophosphamide-treated mice; parameters: species or system CF1 female mice; settings: CA, CY +
# Experimental: as §1
# as §2, with “The initial test dose was 40 mg per kg per mouse, with each active compound subsequently titrated below this level.” left out
# as §3, with “All bacteria were inoculated i.p. to induce infection in the in vivo experiments.” left out, “testing. […]” for “testing.”
# [5] = test system: Herpes Simplex Virus-1 (HSV1); assay: Antiviral experiment in mice infected IP with Herpes Simplex Virus-1; type: in vivo, ICR mice; settings: for Average Day of Death, Pre Treatment: HSV1 day 5; for Average Day of Death, Post Treatment: HSV1 prior to treatment
# Experimental: An antiviral experiment was conducted to compare treatment with 6-(5-Cholesten-3β-yloxy)hexyl 1-thio-β-D-mannopyranoside (Example 2) in mice infected IP with Herpes Simplex Virus-1 (HSV1) immediately before (post treatment) or after 5 days of treatment (pretreatment).
# Ten mice (ICR, 20 gm, mixed sexes) were pretreated by SC injection of a 0.1 mL suspension of test compound twice a day for 4 days. On day 5, the mice were injected IP with 0.5 mL solution of HSV1 (Schloser, 10-5). The post treatment group was infected with HSV1 prior to administration of test compound. Day of death from time of infection with HSV1 was recorded for each mouse and average day of death per treatment group was calculated.
# Pseudomonas aeruginosa = Pseudomonas aeruginosa in vivo protection study in cyclophosphamide-treated mice; parameters: species or system CF1 female mice; settings: for LD50 Actual: PA, CY +
# Experimental: as §1
# as §2, with “The initial test dose was 40 mg per kg per mouse, with each active compound subsequently titrated below this level.” left out
# as §3, §4
# Klebsiella pheumoniae = assay: In vivo protection from Klebsiella infection in cyclophosphamide-treated mice; parameters: species or system CF1 female mice; settings: KP; CY +; 40 mg/kg
# Experimental: as §1
# as §2, with “The initial test dose was 40 mg per kg per mouse, with each active compound subsequently titrated below this level.” left out
# [6] = test system: reverse transcriptase in several retroviruses; settings: in vitro; cited from earlier work
# [7] = test system: AIDS-related Kaposi's sarcoma; settings: cited from earlier work
# [8] = in vivo; cited from earlier work
compound,measurement,setting,value
"CO[C@H]1/C=C/O[C@@]2(C)Oc3c(C)c(O)c4c(c3C2=O)C2=NC3(CCN(CC(C)C)CC3)NC2=C(NC(=O)/C(C)=C\C=C\[C@H](C)[C@H](O)[C@@H](C)[C@@H](O)[C@@H](C)[C@H](OC(C)=O)[C@@H]1C)C4=O [Ansamycin, rifabutin]",efficacy in opportunistic infection,[1],some efficacy
"CC(C)(S)[C@@H](N)C(=O)O [D-Penicillamine, 3-mercapto-D-valine]",clinical effect in AIDS / ARC patients,[2],suppressed the virus
same,T cell levels,[3]; 13 AIDS patients with perpetually swollen glands,temporarily depressed T cell levels
same,"effect on HIV infectivity, growth or reproduction",HIV,Inhibits HIV reproduction in humans
Cc1ccc(C(=O)Nc2ccc(S(=O)(=O)O)c3cc(S(=O)(=O)O)cc(S(=O)(=O)O)c23)cc1NC(=O)c1cccc(NC(=O)Nc2cccc(C(=O)Nc3cc(C(=O)Nc4ccc(S(=O)(=O)O)c5cc(S(=O)(=O)O)cc(S(=O)(=O)O)c45)ccc3C)c2)c1 [Suramin],clinical effect in AIDS / ARC patients,[2],little or no evidence of clinical improvement or immunologic recovery
same,HIV reverse transcriptase inhibition,[4],Potent inhibitor of HIV reverse transcriptase
"CC(C)CCC[C@@H](C)[C@H]1CC[C@H]2[C@@H]3CC=C4C[C@@H](OCCCCCCS[C@@H]5O[C@H](CO)[C@@H](O)[C@H](O)[C@@H]5O)CC[C@]4(C)[C@H]3CC[C@]12C [Example 2, 6-(5-Cholesten-3β-yloxy)hexyl 1-thio-β-D-mannopyranoside]",LD50 Actual,Staphylococcus aureus; 5 mg/kg,3.38 × 10^5 CFU
same,LD50 Actual,Staphylococcus aureus; 10 mg/kg,1.04 × 10^6 CFU
same,LD50 Actual,Staphylococcus aureus; 20 mg/kg,2.38 × 10^6 CFU
same,LD50 Actual,Staphylococcus aureus; 40 mg/kg,1.58 × 10^7 CFU
same,LD50 Actual,Candida albicans; 10 mg/kg,3.68 × 10^4 CFU
same,LD50 Actual,Candida albicans; 20 mg/kg,5.2 × 10^4 CFU
same,LD50 Actual,Candida albicans; 40 mg/kg,7.88 × 10^4 CFU
same,"Average Day of Death, Pre Treatment","[5]; 0.8 mg/kg SC twice a day for 4 days, P 0.797",8.6 days
same,"Average Day of Death, Post Treatment",[5]; 0.8 mg/kg SC twice a day,9.1 days
same,"Average Day of Death, Pre Treatment","[5]; 3.1 mg/kg SC twice a day for 4 days, P 0.348",7.1 days
same,"Average Day of Death, Post Treatment",[5]; 3.1 mg/kg SC twice a day,6.3 days
same,"Average Day of Death, Pre Treatment","[5]; 12.5 mg/kg SC twice a day for 4 days, P 0.725",8.0 days
same,"Average Day of Death, Post Treatment",[5]; 12.5 mg/kg SC twice a day,7.5 days
same,"Average Day of Death, Pre Treatment","[5]; 50 mg/kg SC twice a day for 4 days, P 0.003",11.0 days
same,"Average Day of Death, Post Treatment",[5]; 50 mg/kg SC twice a day,6.4 days
same,protection from fatal viral infection over placebo,"[5]; 50 mg/kg twice a day for four days, by day of death",statistically enhanced protection from fatal viral infection over placebo treated animals
same,"protection, pretreated over post treatment group",[5]; pretreated mice versus post treatment group,statistically enhanced protection over the post treatment group
same,LD50 Actual,Pseudomonas aeruginosa; 10 mg/kg,3.2 × 10^4 CFU
same,LD50 Actual,Pseudomonas aeruginosa; 20 mg/kg,3.2 × 10^5 CFU
same,LD50 Actual,Pseudomonas aeruginosa; 40 mg/kg,1.22 × 10^6 CFU
same,LD50 Actual,Pseudomonas aeruginosa; 80 mg/kg,2.59 × 10^6 CFU
same,LD50 Actual,Klebsiella pheumoniae,4.73 × 10^7 CFU
same,P.I. (log),Klebsiella pheumoniae,1.12 log
"NC(=O)c1ncn([C@@H]2O[C@H](CO)[C@@H](O)[C@H]2O)n1 [Ribavirin, 1-β-D-ribofuranosyl-1,2,4-triazole-3-carboxamide]",clinical effect in AIDS / ARC patients,[2],inhibited viral replication and improved immune function in AIDS patients
CC(C)(N1CC1C#N)N1CC1C(N)=O (stereo not shown) [Azimexon],clinical effect in AIDS / ARC patients,[2],improvements in symptoms and immune function in patients with ARC but not AIDS
same,"adverse effects, toxicity, tolerability",[3],only toxic effect was mild hemolysis
"CC(=O)Nc1ccc(C(=O)O)cc1.CC(=O)Nc1ccc(C(=O)O)cc1.CC(=O)Nc1ccc(C(=O)O)cc1.CC(O)CN(C)C.CC(O)CN(C)C.CC(O)CN(C)C.O=c1[nH]cnc2c1ncn2[C@@H]1O[C@H](CO)[C@@H](O)[C@H]1O [Inosine pranobex, p-Acetamidobenzoic acid salt of (1-dimethylamino-2-propanol:inosinate complex 3:3:1 molar ratio)]",clinical effect in AIDS / ARC patients,[2],improve immune function in ARC patients
ammonium 21-tungsto-9-antimoniate [HPA-23],clinical effect in AIDS / ARC patients,[2],no therapeutic benefit has been documented in AIDS patients
same,reverse transcriptase inhibition in retroviruses,[6],Inhibits reverse transcriptase in several retroviruses in vitro
same,"effect on HIV infectivity, growth or reproduction",HIV,some tendency to check the growth of HIV
α-Interferon,tumor regression,[7],induced tumor regression in some AIDS-related Kaposi's sarcoma cases
same,"effect on HIV infectivity, growth or reproduction",HIV,Checks the growth of HIV in vitro
6-(20S-Amino-pregn-5-en-3β-yloxy)hexyl 1-thio-β-D-mannopyranoside [Example 14],Protective Index (log),"Pseudomonas aeruginosa; Table 3, Pseudomonas aeruginosa, cyclophosphamide-treated mice, dose not given",4.37 log
"O=C(O)P(=O)(O)O [Foscarnet, trisodium phosphonoformate]",HIV reverse transcriptase inhibition,[4],Inhibits HIV reverse transcriptase activity in vitro at levels pharmacologically acceptable in vivo
same,"adverse effects, toxicity, tolerability",[3],serious side effects
"Cc1cn([C@H]2C[C@H](N=[N+]=[N-])[C@@H](CO)O2)c(=O)[nH]c1=O [Azidothymidine, 3'-azido-3'-deoxythymidine]",clinical effect in AIDS / ARC patients,[2],First drug to show promise in prolonging lives of patients with AIDS or AIDS-related complex (ARC)
same,central nervous system penetration,[8],effectively penetrates central nervous system
